The record followed here is BindingDB's records for doi:10.1016/s0014-2999(98)00241-6 (Mcgill University, 1998).

In the experiment the target is Norepinephrine transporter (Rattus norvegicus, UniProt Q9JIA2).

As usually defined, the Ki is the dissociation constant of the complex between target and ligand, obtained from inhibition or displacement. High values mean lower affinity, low ones higher affinity. In the case of `c1ccc2c(CCC3CCNCC3)c[nH]c2c1`, the Ki stood at 2.76 µM. With `COCCCC/C(=N\OCCN)c1ccc(C(F)(F)F)cc1` [(1E)-5-methoxy-1-[4-(trifluoromethyl)phenyl]pentan-1-one O-(2-aminoethyl)oxime] the figure was 1.36 µM.
